# Results taken from patent US20260274853A1, “BIFUNCTIONAL COMPOUNDS CONTAINING PYRIMIDINE DERIVATIVES FOR DEGRADING CYCLIN-DEPENDENT KINASE 2 VIA UBIQUITIN PROTEASOME PATHWAY” (NIKANG THERAPEUTICS, INC., priority 2022, published 2026).
# Target: T1, CDK2 (Homo sapiens, UniProt P24941)
# T1 construct: High-Throughput Measurement of Cellular Endogenous CDK2; endogenous in cells; host or cells: OVCAR3
# Assay: Inhibition of CDK2: phospho-Rb (S807/811) HTRF measurement in OVCAR3 cells
# Assay type: cell-based
# Conditions: 24 h compound treatment, read-out: pRb (nM), IC50 in pRB(S807/811) assay
# Description: Phosphorylation of RB protein at S807/811 were measured using HTRF phospho-RB cellular kits (Cat #64RBS807PEG) from Cisbio.
# On Day 1, OVCAR3 (dependent on CDK2) cells were seeded into 96-well tissue-culture treated plates at 20,000 cells/well in 200 μL and incubated overnight at 37° C. in CO2 atmosphere. On Day 2, the cells were treated with test compounds at concentrations from 0.3 to 10,000 nM using HP D300 digital dispenser. Twenty-four hours after compound treatment, cell culture media was removed by flicking the plate and tapping the plate against clean paper towel. Immediately 30 μL 1× lysis buffer was supplemented from the kit and the plate was incubated at room temperature on shaker for 30 min. After homogenization by pipetting up and down, 8 μL cell lysate from 96-well cell culture plate was transferred to 384-well small volume white detection plate. 2 μL premixed detection solution was added and the plate was covered with sealer. To prepare the detection solution, d2 conjugated-phospho-RB antibody and Eu-cryptate conjugated phosphor-RB antibody were diluted into detection buffer following manufacturer's instruction. Detection plates were incubated for 4 h at room temperature and read on ClarioStar (BMG Labtech) in TR-FRET mode (665 nM and 620 nM). The TR-FRET ratio (665 nM/620 nM) was plotted against the compound concentration and normalized to DMSO controls. Half maximal inhibition concentration (IC50) values are calculated with a four-parameter logistic fit using GraphPad Prism (version 8; La Jolla, CA).
# In the table below, A indicates a IC50 of less than 0.1 μM; B indicates a IC50 of greater than or equal to 0.1 μM but less than 0.5 μM; C indicates a IC50 of greater than or equal to 0.5 μM but less than 1 μM; and D indicates a […] of greater than or equal to 1 μM but less than 10 μM.
row,Compound,IC50 [nM]
1,Cn1nc(N2CCC(=O)NC2=O)c2ccc(C3CCN(Cc4cccc(S(=O)(=O)N5CC[C@H](Nc6ncc(C(F)(F)F)c(-c7cnn(CC(F)F)c7)n6)[C@H](F)C5)c4)CC3)cc21 (racemic) [Example 37],< 100
2,"O=C1CCC(N2Cc3cc(N4CCC(CN5CCN(c6cccc(S(=O)(=O)N7CCC(Nc8ncc(C(F)(F)F)c(-c9cnn(CC(F)(F)F)c9)n8)CC7)c6)CC5)CC4)ccc3C2=O)C(=O)N1 (centres unmarked) [Example 45, 3-(1-oxo-5-(4-((4-(3-((4-((4-(1-(2,2,2-trifluoroethyl)-1H-pyrazol-4-yl)-5-(trifluoromethyl)pyrimidin-2-yl)-amino)-piperidin-1-yl)sulfonyl)-phenyl)piperazin-1-yl)methyl)-piperidin-1-yl)isoindolin-2-yl)-piperidine-2,6-dione]",100 to 500
3,O=C1CCN(C2CCN(Cc3cccc(S(=O)(=O)N4CCC(Nc5ncc(C(F)(F)F)c(-c6cnn(CC(F)(F)F)c6)n5)CC4)c3)CC2)C(=O)N1 [Example 46],100 to 500
4,O=C1CCC(Nc2ccc(N3CCN(Cc4cccc(S(=O)(=O)N5CCC(Nc6ncc(C(F)(F)F)c(-c7cnn(CC(F)(F)F)c7)n6)CC5)c4)CC3)cc2)C(=O)N1 (centres unmarked) [Example 53],< 100
5,Cn1nc(N2CCC(=O)NC2=O)c2ccc(C3CCN(Cc4cc(S(=O)(=O)N5CCC(Nc6ncc(C(F)(F)F)c(-c7cnn(CC(F)(F)F)c7)n6)CC5)ccc4C(F)(F)F)CC3(F)F)cc21 (centres unmarked) [Example 55],1000 to 10000
6,"O=C1CCC(N2CCN(Cc3cccc(S(=O)(=O)N4CCC(Nc5ncc(C(F)(F)F)c(-c6cnn(CC(F)(F)F)c6)n5)CC4)c3)C3CC32)C(=O)N1 (centres unmarked) [Example 63, 3-(5-(3-((4-((4-(1-(2,2,2-trifluoro-ethyl)-1H-pyrazol-4-yl)-5-(trifluoromethyl)-pyrimidin-2-yl)amino)-piperidin-1-yl)-sulfonyl)benzyl)-2,5-diazabicyclo[4.1.0]-heptan-2-yl)-piperidine-2,6-dione]",100 to 500
7,"Cn1nc(N2CCC(=O)NC2=O)c2ccc(C3CCN(Cc4cccc(S(=O)(=O)N5CC[C@@H](Nc6ncc(C(F)(F)F)c(-c7cnn(CC(F)(F)F)c7)n6)[C@@H](F)C5)c4)CC3(F)F)cc21 (stereo partly drawn) [Example 66, 1-(6-(3,3-difluoro-1-(3-(((3S,4R)-3-fluoro-4-((4-(1-(2,2,2-trifluoroethyl)-1H-pyrazol-4-yl)-5-(trifluoromethyl)-pyrimidin-2-yl)amino)piperidin-1-yl)-sulfonyl)benzyl)piperidin-4-yl)-1-methyl-1H-indazol-3-yl)dihydro-pyrimidine-2,4(1H,3H)-dione]",1000 to 10000
8,"O=C1CCN(c2ccc(N3CCN(Cc4cccc(S(=O)(=O)N5CCC(Nc6ncc(C(F)(F)F)c(-c7cnn(-c8ccccc8F)c7)n6)CC5)c4)CC3)cc2)C(=O)N1 [Example 71, 1-(4-(4-(3-((4-((4-(1-(2-fluorophenyl)-1H-pyrazol-4-yl)-5-(trifluoromethyl)-pyrimidin-2-yl)amino)piperidin-1-yl)sulfonyl)benzyl)piperazin-1-yl)-phenyl)dihydropyrimidine-2,4(1H,3H)-dione]",100 to 500
9,"O=C1CCC(N2CCN(Cc3cccc(S(=O)(=O)N4CCC(Nc5ncc(C(F)(F)F)c(-c6cnn(CC(F)(F)F)c6)n5)CC4)c3)CC2)C(=O)N1 (centres unmarked) [Example 76, 3-(4-(3-((4-((4-(1-(2,2,2-trifluoro-ethyl)-1H-pyrazol-4-yl)-5-(trifluoromethyl)-pyrimidin-2-yl)amino)-piperidin-1-yl)-sulfonyl)benzyl)piperazin-1-yl)-piperidine-2,6-dione]",100 to 500
10,"O=C1CCN(C2CCCN(Cc3cccc(S(=O)(=O)N4CCC(Nc5ncc(C(F)(F)F)c(-c6cnn(CC(F)(F)F)c6)n5)CC4)c3)C2)C(=O)N1 (centres unmarked) [Example 80, 1-(1-(3-((4-((4-(1-(2,2,2-trifluoro-ethyl)-1H-pyrazol-4-yl)-5-(trifluoromethyl)-pyrimidin-2-yl)amino)-piperidin-1-yl)sulfonyl)benzyl)-piperidin-3-yl)dihydropyrimidine-2,4(1H,3H)-dione]",100 to 500
11,"Cn1nc(N2CCC(=O)NC2=O)c2ccc(N3CC4CCC(C3)N4Cc3cccc(S(=O)(=O)N4CC[C@H](Nc5ncc(C(F)(F)F)c(-c6cnn(CC(F)(F)F)c6)n5)[C@H](F)C4)c3)cc21 [Example 85, 1-(6-(8-(3-(((3R,4S)-3-fluoro-4-((4-(1-(2,2,2-trifluoroethyl)-1H-pyrazol-4-yl)-5-(trifluoromethyl)pyrimidin-2-yl)-amino)-piperidin-1-yl)sulfonyl)benzyl)-3,8-diazabicyclo[3.2.1]octan-3-yl)-1-methyl-1H-indazol-3-yl)dihydro-pyrimidine-2,4(1H,3H)-dione]",100 to 500
12,"Cn1nc(N2CCC(=O)NC2=O)c2ccc(C3CCN(Cc4cccc(S(=O)(=O)N5CCC(Nc6ncc(C(F)(F)F)c(-c7cnn(CC(F)(F)F)c7)n6)CC5)c4C(F)(F)F)CC3)cc21 [Example 87, 1-(1-methyl-6-(1-(3-((4-((4-(1-(2,2,2-trifluoroethyl)-1H-pyrazol-4-yl)-5-(trifluoromethyl)pyrimidin-2-yl)-amino)-piperidin-1-yl)sulfonyl)-2-(trifluoro-methyl)benzyl)piperidin-4-yl)-1H-indazol-3-yl)dihydro-pyrimidine-2,4(1H,3H)-dione]",500 to 1000
13,"Cn1nc(N2CCC(=O)NC2=O)c2ccc(C3CCN(C(c4cccc(S(=O)(=O)N5CCC(Nc6ncc(C(F)(F)F)c(-c7cnn(CC(F)(F)F)c7)n6)CC5)c4)C(F)(F)F)CC3)cc21 (centres unmarked) [Example 91, 1-(1-methyl-6-(1-(2,2,2-trifluoro-1-(3-((4-((4-(1-(2,2,2-trifluoroethyl)-1H-pyrazol-4-yl)-5-(trifluoromethyl)-pyrimidin-2-yl)amino)piperidin-1-yl)-sulfonyl)phenyl)ethyl)piperidin-4-yl)-1H-indazol-3-yl)dihydro-pyrimidine-2,4(1H,3H)-dione]",100 to 500
14,"Cn1nc(N2CCC(=O)NC2=O)c2ccc(C3CCN(CC4CCN(S(=O)(=O)[C@H]5CC[C@H](Nc6ncc(C(F)(F)F)c(-c7cnn(CC(F)(F)F)c7)n6)CC5)CC4)CC3)cc21 [Example 94, 1-(1-methyl-6-(1-((1-(((1r,4r)-4-((4-(1-(2,2,2-trifluoroethyl)-1H-pyrazol-4-yl)-5-(trifluoromethyl)pyrimidin-2-yl)-amino)cyclohexyl)sulfonyl)piperidin-4-yl)methyl)piperidin-4-yl)-1H-indazol-3-yl)dihydropyrimidine-2,4(1H,3H)-dione]",100 to 500
15,"Cn1nc(N2CCC(=O)NC2=O)c2ccc(C3CCN(CCc4cccc(S(=O)(=O)[C@H]5CC[C@H](Nc6ncc(C(F)(F)F)c(-c7cnn(CC(F)(F)F)c7)n6)CC5)c4)CC3)cc21 [Example 95, 1-(1-methyl-6-(1-(3-(((1r,4r)-4-((4-(1-(2,2,2-trifluoroethyl)-1H-pyrazol-4-yl)-5-(trifluoromethyl)pyrimidin-2-yl)-amino)-cyclohexyl)sulfonyl)phenethyl)piperidin-4-yl)-1H-indazol-3-yl)dihydro-pyrimidine-2,4(1H,3H)-dione]",100 to 500
16,"Cn1nc(N2CCC(=O)NC2=O)c2ccc(N3CCC(CN4CCN(S(=O)(=O)N5CCC(Nc6ncc(C(F)(F)F)c(-c7cnn(CC(F)(F)F)c7)n6)CC5)CC4)CC3)cc21 [Example 97, 1-(1-methyl-6-(4-((4-((4-((4-(1-(2,2,2-trifluoroethyl)-1H-pyrazol-4-yl)-5-(trifluoromethyl)pyrimidin-2-yl)amino)-piperidin-1-yl)sulfonyl)piperazin-1-yl)-methyl)piperidin-1-yl)-1H-indazol-3-yl)dihydropyrimidine-2,4(1H,3H)-dione]",100 to 500
17,"Cn1nc(N2CCC(=O)NC2=O)c2ccc(C3CCN(CC(C)(C)Cc4cccc(S(=O)(=O)N5CCC(Nc6ncc(C(F)(F)F)c(-c7cnn(CC(F)(F)F)c7)n6)CC5)c4)CC3)cc21 [Example 98, 1-(6-(1-(2,2-dimethyl-3-(3-((4-((4-(1-(2,2,2-trifluoroethyl)-1H-pyrazol-4-yl)-5-(trifluoromethyl)pyrimidin-2-yl)amino)-piperidin-1-yl)sulfonyl)-phenyl)propyl)-piperidin-4-yl)-1-methyl-1H-indazol-3-yl)dihydro-pyrimidine-2,4(1H,3H)-dione]",< 100
